ChEMBL document CHEMBL1201862, “PubChem BioAssay data set” (2004)
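How tested: cells in 96-well plates exposed to compound for 48 hours at five concentrations. GI50 = concentration required for 50% inhibition of growth.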 Calls of active or inactive are those of the source. No stated cut-off is given here; in the data, active = GI50 up to about 1.1 µM and inactive = higher.

Key:
Test in all cases: NCI-60 cell line screen, 48 h
786-0 = test system: 786-0
A498 = test system: A498
A549 = test system: A549
ACHN = test system: ACHN
CAKI-1 = test system: CAKI-1
CCRF-CEM = test system: CCRF-CEM
COLO 205 = test system: COLO 205
DU-145 = test system: DU-145
EKVX = test system: EKVX
HCC 2998 = test system: HCC 2998
HCT-116 = test system: HCT-116
HCT-15 = test system: HCT-15
HL-60 = test system: HL-60
HOP-62 = test system: HOP-62
HOP-92 = test system: HOP-92
HT-29 = test system: HT-29
Hs-578T = test system: Hs-578T
IGROV-1 = test system: IGROV-1
K562 = test system: K562
KM12 = test system: KM12
LOX IMVI = test system: LOX IMVI
M14 = test system: M14
MDA-MB-231 = test system: MDA-MB-231
MDA-MB-435 = test system: MDA-MB-435
MDA-N = test system: MDA-N
MOLT-4 = test system: MOLT-4
Malme-3M = test system: Malme-3M
NCI-H226 = test system: NCI-H226
NCI-H23 = test system: NCI-H23
NCI-H460 = test system: NCI-H460
NCI-H522 = test system: NCI-H522
NCI/ADR-RES = test system: NCI/ADR-RES
OVCAR-3 = test system: OVCAR-3
OVCAR-4 = test system: OVCAR-4
OVCAR-5 = test system: OVCAR-5
OVCAR-8 = test system: OVCAR-8
PC-3 = test system: PC-3
RPMI-8226 = test system: RPMI-8226
RXF 393 = test system: RXF 393
SF-268 = test system: SF-268
SF-295 = test system: SF-295
SF-539 = test system: SF-539
SK-MEL-28 = test system: SK-MEL-28
SK-MEL-2 = test system: SK-MEL-2
SK-MEL-5 = test system: SK-MEL-5
SK-OV-3 = test system: SK-OV-3
SN12C = test system: SN12C
SNB-19 = test system: SNB-19
SR = test system: SR
SW-620 = test system: SW-620
T47D = test system: T47D
TK-10 = test system: TK-10
U-251 = test system: U-251
UACC-257 = test system: UACC-257
UACC-62 = test system: UACC-62
UO-31 = test system: UO-31
MCF7 = test system: MCF7
SNB-75 = test system: SNB-75

How did the GI50 (786-0) turn out when `O=[N+]([O-])/C(C(Cl)=C(Cl)Cl)=C(/Nc1ccccc1)SCc1ccccc1` was run?
The GI50 was 17.3 µM (inactive).

What about the GI50 (A498) of the same compound?
Its GI50 is 25.9 µM (inactive).

What about the GI50 (A549) of the same compound?
The GI50 was 17.8 µM (inactive).

What about the GI50 (ACHN) of the same compound?
Its GI50 is 28.3 µM (inactive).

And the GI50 (CAKI-1)?
Its GI50 is 31.9 µM (inactive).

What about the GI50 (CCRF-CEM) of the same compound?
The GI50 was 15 µM (inactive).

What about the GI50 (COLO 205) of the same compound?
Its GI50 is 21.9 µM (inactive).

What about the GI50 (DU-145) of the same compound?
Its GI50 is 23.6 µM (inactive).

What about the GI50 (EKVX) of the same compound?
The GI50 was 21 µM (inactive).

And the GI50 (HCC 2998)?
Its GI50 is 24.3 µM (inactive).

What about the GI50 (HCT-116) of the same compound?
The GI50 was 16.6 µM (inactive).

What about the GI50 (HCT-15) of the same compound?
The GI50 was 14.4 µM.

And the GI50 (HL-60)?
The GI50 was 19.1 µM (inactive).

And the GI50 (HOP-62)?
The GI50 was 19.1 µM (inactive).

What about the GI50 (HOP-92) of the same compound?
The GI50 was 31 µM (inactive).

And the GI50 (HT-29)?
Its GI50 is 29.6 µM (inactive).

What about the GI50 (Hs-578T) of the same compound?
The GI50 was 44.1 µM (inactive).

What about the GI50 (IGROV-1) of the same compound?
The GI50 was 22.3 µM (inactive).

And the GI50 (K562)?
Its GI50 is 24 µM (inactive).

What about the GI50 (KM12) of the same compound?
The GI50 was 15.3 µM (inactive).

And the GI50 (LOX IMVI)?
Its GI50 is 20.5 µM (inactive).

What about the GI50 (M14) of the same compound?
Its GI50 is 16.9 µM (inactive).

And the GI50 (MDA-MB-231)?
The GI50 was 19.9 µM (inactive).

What about the GI50 (MDA-MB-435) of the same compound?
Its GI50 is 17.8 µM (inactive).

What about the GI50 (MDA-N) of the same compound?
Its GI50 is 16.7 µM (inactive).

What about the GI50 (MOLT-4) of the same compound?
The GI50 was 17 µM (inactive).

What about the GI50 (Malme-3M) of the same compound?
Its GI50 is 16.4 µM (inactive).

What about the GI50 (NCI-H226) of the same compound?
Its GI50 is 21.2 µM (inactive).

What about the GI50 (NCI-H23) of the same compound?
Its GI50 is 20.1 µM (inactive).

And the GI50 (NCI-H460)?
The GI50 was 19.8 µM (inactive).

And the GI50 (NCI-H522)?
Its GI50 is 23.3 µM (inactive).

What about the GI50 (NCI/ADR-RES) of the same compound?
The GI50 was 16.2 µM (inactive).

And the GI50 (OVCAR-3)?
Its GI50 is 15 µM (inactive).

And the GI50 (OVCAR-4)?
Its GI50 is 24.7 µM (inactive).

What about the GI50 (OVCAR-5) of the same compound?
Its GI50 is 20 µM (inactive).

And the GI50 (OVCAR-8)?
Its GI50 is 17.7 µM (inactive).

And the GI50 (PC-3)?
Its GI50 is 24.5 µM (inactive).

And the GI50 (RPMI-8226)?
The GI50 was 14.1 µM (inactive).

What about the GI50 (RXF 393) of the same compound?
Its GI50 is 19.4 µM (inactive).

And the GI50 (SF-268)?
The GI50 was 20.5 µM (inactive).

And the GI50 (SF-295)?
The GI50 was 34.4 µM (inactive).

And the GI50 (SF-539)?
Its GI50 is 23.4 µM (inactive).

And the GI50 (SK-MEL-28)?
Its GI50 is 20.4 µM (inactive).

And the GI50 (SK-MEL-2)?
The GI50 was 19.4 µM (inactive).

What about the GI50 (SK-MEL-5) of the same compound?
The GI50 was 21.6 µM (inactive).

And the GI50 (SK-OV-3)?
Its GI50 is 52 µM (inactive).

What about the GI50 (SN12C) of the same compound?
The GI50 was 22.4 µM (inactive).

What about the GI50 (SNB-19) of the same compound?
Its GI50 is 25.2 µM (inactive).

What about the GI50 (SR) of the same compound?
The GI50 was 22.3 µM (inactive).

And the GI50 (SW-620)?
The GI50 was 26.7 µM (inactive).

And the GI50 (T47D)?
The GI50 was 34.6 µM (inactive).

And the GI50 (TK-10)?
The GI50 was 29.8 µM (inactive).

And the GI50 (U-251)?
The GI50 was 20.1 µM (inactive).

What about the GI50 (UACC-257) of the same compound?
The GI50 was 24 µM (inactive).

What about the GI50 (UACC-62) of the same compound?
Its GI50 is 20 µM (inactive).

What about the GI50 (UO-31) of the same compound?
The GI50 was 20.8 µM (inactive).

For `O/N=C/[C@H]1COC2(CCCCC2)O1`, which GI50 (786-0) is on record?
The GI50 was > 100 µM (inactive).

And the GI50 (A498)?
Its GI50 is > 100 µM (inactive).

What about the GI50 (A549) of the same compound?
The GI50 was > 100 µM (inactive).

And the GI50 (ACHN)?
Its GI50 is > 100 µM (inactive).

What about the GI50 (CCRF-CEM) of the same compound?
Its GI50 is > 100 µM (inactive).

And the GI50 (COLO 205)?
Its GI50 is > 100 µM (inactive).

What about the GI50 (DU-145) of the same compound?
The GI50 was > 100 µM (inactive).

What about the GI50 (EKVX) of the same compound?
Its GI50 is > 100 µM (inactive).

What about the GI50 (HCT-116) of the same compound?
Its GI50 is > 100 µM (inactive).

What about the GI50 (HCT-15) of the same compound?
The GI50 was over 100 µM.

What about the GI50 (HOP-62) of the same compound?
The GI50 was > 100 µM (inactive).

What about the GI50 (HOP-92) of the same compound?
The GI50 was 31.6 µM (inactive).

What about the GI50 (HT-29) of the same compound?
Its GI50 is > 100 µM (inactive).

And the GI50 (Hs-578T)?
The GI50 was > 100 µM (inactive).

And the GI50 (IGROV-1)?
Its GI50 is > 100 µM (inactive).

And the GI50 (K562)?
The GI50 was > 100 µM (inactive).

And the GI50 (KM12)?
The GI50 was > 100 µM (inactive).

What about the GI50 (LOX IMVI) of the same compound?
Its GI50 is > 100 µM (inactive).

And the GI50 (M14)?
Its GI50 is > 100 µM (inactive).

And the GI50 (MCF7)?
The GI50 was > 100 µM (inactive).

And the GI50 (MDA-MB-231)?
The GI50 was > 100 µM (inactive).

And the GI50 (MDA-MB-435)?
The GI50 was > 100 µM (inactive).

What about the GI50 (MDA-N) of the same compound?
The GI50 was > 100 µM (inactive).

What about the GI50 (MOLT-4) of the same compound?
The GI50 was > 100 µM (inactive).

What about the GI50 (Malme-3M) of the same compound?
The GI50 was > 100 µM (inactive).

And the GI50 (NCI-H226)?
The GI50 was > 100 µM (inactive).

And the GI50 (NCI-H23)?
The GI50 was > 100 µM (inactive).

What about the GI50 (NCI/ADR-RES) of the same compound?
Its GI50 is > 100 µM (inactive).

What about the GI50 (OVCAR-3) of the same compound?
The GI50 was > 100 µM (inactive).

What about the GI50 (OVCAR-4) of the same compound?
Its GI50 is > 100 µM (inactive).

What about the GI50 (OVCAR-5) of the same compound?
The GI50 was > 100 µM (inactive).

What about the GI50 (OVCAR-8) of the same compound?
Its GI50 is > 100 µM (inactive).

And the GI50 (PC-3)?
The GI50 was > 100 µM (inactive).

What about the GI50 (RPMI-8226) of the same compound?
The GI50 was > 100 µM (inactive).

And the GI50 (SF-268)?
Its GI50 is > 100 µM (inactive).

What about the GI50 (SF-295) of the same compound?
Its GI50 is > 100 µM (inactive).

And the GI50 (SK-MEL-28)?
Its GI50 is > 100 µM (inactive).

And the GI50 (SK-MEL-2)?
Its GI50 is > 100 µM (inactive).

And the GI50 (SK-MEL-5)?
The GI50 was > 100 µM (inactive).

And the GI50 (SK-OV-3)?
The GI50 was > 100 µM (inactive).

And the GI50 (SN12C)?
Its GI50 is > 100 µM (inactive).

What about the GI50 (SNB-19) of the same compound?
The GI50 was > 100 µM (inactive).

What about the GI50 (SNB-75) of the same compound?
Its GI50 is > 100 µM (inactive).

And the GI50 (SW-620)?
The GI50 was > 100 µM (inactive).

What about the GI50 (TK-10) of the same compound?
Its GI50 is > 100 µM (inactive).

What about the GI50 (U-251) of the same compound?
Its GI50 is > 100 µM (inactive).

And the GI50 (UACC-257)?
Its GI50 is > 100 µM (inactive).

What about the GI50 (UACC-62) of the same compound?
The GI50 was > 100 µM (inactive).

And the GI50 (UO-31)?
The GI50 was > 100 µM (inactive).
